Experiments:
EPHB1 = target: T1, EPHB1 (Homo sapiens, UniProt P54762); test: biochemical; conditions: read-out: Percent control
T1 sequence (P54762 18-984): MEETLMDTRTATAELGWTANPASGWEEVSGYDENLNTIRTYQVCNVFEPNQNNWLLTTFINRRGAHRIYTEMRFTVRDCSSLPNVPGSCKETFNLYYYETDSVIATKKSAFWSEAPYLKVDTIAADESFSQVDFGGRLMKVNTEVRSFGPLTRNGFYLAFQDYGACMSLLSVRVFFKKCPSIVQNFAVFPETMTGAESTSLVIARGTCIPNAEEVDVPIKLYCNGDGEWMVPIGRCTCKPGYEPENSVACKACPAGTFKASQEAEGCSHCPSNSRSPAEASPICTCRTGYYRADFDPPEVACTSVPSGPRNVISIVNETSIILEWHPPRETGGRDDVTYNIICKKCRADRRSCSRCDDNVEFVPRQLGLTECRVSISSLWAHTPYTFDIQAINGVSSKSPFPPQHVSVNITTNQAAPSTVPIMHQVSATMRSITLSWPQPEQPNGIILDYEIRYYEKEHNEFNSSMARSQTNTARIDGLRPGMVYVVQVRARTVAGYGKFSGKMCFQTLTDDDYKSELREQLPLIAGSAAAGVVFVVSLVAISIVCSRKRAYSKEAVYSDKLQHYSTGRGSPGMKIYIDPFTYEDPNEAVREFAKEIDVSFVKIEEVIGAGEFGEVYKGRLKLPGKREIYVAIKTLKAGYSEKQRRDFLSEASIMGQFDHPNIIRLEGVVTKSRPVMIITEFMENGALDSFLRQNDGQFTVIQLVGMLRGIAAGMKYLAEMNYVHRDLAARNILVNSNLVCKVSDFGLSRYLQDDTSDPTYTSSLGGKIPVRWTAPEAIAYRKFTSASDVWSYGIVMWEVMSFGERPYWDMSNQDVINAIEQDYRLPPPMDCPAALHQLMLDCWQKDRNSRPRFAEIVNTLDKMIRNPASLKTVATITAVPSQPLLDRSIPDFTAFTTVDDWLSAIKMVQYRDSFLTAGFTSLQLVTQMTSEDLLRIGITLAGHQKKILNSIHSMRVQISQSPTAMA

EPHB6 = target: T2, EPHB6 (Homo sapiens, UniProt O15197); test: biochemical; conditions: read-out: Percent control
T2 sequence (O15197 32-1021): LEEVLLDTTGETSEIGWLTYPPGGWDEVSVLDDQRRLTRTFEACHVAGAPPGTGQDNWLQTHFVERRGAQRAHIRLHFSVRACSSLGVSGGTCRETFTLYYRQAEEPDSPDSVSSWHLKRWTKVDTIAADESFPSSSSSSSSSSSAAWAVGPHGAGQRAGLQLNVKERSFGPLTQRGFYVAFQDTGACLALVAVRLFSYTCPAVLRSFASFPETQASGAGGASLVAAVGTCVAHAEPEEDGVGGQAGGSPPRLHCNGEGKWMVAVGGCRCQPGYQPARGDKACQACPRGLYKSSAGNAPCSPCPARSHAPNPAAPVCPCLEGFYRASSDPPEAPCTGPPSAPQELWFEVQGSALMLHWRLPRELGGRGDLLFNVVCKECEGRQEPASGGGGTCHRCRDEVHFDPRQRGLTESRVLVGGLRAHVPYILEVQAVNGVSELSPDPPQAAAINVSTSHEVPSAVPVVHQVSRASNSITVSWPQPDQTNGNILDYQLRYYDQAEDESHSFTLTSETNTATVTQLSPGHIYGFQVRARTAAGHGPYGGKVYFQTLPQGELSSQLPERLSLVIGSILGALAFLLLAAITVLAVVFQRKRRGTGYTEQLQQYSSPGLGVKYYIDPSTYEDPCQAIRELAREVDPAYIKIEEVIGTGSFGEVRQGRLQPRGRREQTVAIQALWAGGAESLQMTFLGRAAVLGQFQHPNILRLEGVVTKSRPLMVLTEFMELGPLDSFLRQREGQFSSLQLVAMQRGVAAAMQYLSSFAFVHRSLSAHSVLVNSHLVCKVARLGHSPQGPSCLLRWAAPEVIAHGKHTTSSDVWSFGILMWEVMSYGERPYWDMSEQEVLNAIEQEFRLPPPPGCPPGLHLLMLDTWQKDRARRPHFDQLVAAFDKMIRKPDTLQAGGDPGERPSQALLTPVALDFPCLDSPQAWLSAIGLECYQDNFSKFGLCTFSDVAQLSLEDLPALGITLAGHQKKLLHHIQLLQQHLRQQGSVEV

MET(M1250T) [1] = target: T3, MET(M1250T) (Homo sapiens, UniProt P08581, M1250T); test: biochemical; conditions: read-out: Percent control
MET(M1250T) [2] = target: T3, MET(M1250T); conditions: 10 μM
[3] = Chemical stability of the hybrid compounds; conditions: saline, phosphate buffered solution (pH 4 and 7.4), culture medium with 5 mM glutathione
ABL2 = ABL2 (Homo sapiens, UniProt P42684); conditions: 10 μM
SYK = SYK (Homo sapiens, UniProt P43405); conditions: 10 μM

T3 sequence (P08581 25-1390 M1250T): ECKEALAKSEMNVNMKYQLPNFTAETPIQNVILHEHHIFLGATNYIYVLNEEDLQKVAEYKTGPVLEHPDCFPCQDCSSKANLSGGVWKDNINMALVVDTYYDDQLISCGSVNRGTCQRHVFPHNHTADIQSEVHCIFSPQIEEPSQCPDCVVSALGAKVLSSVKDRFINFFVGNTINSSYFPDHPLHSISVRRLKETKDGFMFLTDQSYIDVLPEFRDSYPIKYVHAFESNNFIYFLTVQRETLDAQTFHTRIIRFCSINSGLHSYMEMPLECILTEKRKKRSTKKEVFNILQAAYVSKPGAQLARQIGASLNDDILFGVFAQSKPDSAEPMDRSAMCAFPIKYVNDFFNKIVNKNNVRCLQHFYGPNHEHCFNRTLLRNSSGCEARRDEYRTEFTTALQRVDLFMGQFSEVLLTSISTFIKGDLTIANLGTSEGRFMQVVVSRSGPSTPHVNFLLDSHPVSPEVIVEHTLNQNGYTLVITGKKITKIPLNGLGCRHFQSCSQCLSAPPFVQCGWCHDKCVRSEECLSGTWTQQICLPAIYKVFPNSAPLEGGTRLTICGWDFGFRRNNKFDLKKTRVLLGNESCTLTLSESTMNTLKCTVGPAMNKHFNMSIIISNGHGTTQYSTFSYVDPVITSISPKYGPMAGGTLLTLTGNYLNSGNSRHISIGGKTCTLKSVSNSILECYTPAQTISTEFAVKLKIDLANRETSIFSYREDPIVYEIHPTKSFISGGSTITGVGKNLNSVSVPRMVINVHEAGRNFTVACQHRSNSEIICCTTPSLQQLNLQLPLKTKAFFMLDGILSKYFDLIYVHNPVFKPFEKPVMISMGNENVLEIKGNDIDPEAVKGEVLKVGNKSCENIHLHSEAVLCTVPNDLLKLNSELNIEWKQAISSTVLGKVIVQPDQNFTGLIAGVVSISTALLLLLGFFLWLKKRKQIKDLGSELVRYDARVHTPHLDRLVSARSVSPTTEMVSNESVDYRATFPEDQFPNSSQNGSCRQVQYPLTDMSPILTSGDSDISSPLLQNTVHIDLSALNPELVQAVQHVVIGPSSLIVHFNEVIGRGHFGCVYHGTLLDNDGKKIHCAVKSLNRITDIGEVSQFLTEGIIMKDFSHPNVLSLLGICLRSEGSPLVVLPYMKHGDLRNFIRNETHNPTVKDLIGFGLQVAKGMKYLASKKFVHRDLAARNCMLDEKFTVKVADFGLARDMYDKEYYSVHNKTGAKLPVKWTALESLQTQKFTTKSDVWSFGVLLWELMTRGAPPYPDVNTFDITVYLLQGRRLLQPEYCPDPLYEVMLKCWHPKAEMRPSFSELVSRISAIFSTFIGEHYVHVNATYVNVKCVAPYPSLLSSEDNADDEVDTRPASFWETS
Sequence of ABL2 (P42684 whole entry): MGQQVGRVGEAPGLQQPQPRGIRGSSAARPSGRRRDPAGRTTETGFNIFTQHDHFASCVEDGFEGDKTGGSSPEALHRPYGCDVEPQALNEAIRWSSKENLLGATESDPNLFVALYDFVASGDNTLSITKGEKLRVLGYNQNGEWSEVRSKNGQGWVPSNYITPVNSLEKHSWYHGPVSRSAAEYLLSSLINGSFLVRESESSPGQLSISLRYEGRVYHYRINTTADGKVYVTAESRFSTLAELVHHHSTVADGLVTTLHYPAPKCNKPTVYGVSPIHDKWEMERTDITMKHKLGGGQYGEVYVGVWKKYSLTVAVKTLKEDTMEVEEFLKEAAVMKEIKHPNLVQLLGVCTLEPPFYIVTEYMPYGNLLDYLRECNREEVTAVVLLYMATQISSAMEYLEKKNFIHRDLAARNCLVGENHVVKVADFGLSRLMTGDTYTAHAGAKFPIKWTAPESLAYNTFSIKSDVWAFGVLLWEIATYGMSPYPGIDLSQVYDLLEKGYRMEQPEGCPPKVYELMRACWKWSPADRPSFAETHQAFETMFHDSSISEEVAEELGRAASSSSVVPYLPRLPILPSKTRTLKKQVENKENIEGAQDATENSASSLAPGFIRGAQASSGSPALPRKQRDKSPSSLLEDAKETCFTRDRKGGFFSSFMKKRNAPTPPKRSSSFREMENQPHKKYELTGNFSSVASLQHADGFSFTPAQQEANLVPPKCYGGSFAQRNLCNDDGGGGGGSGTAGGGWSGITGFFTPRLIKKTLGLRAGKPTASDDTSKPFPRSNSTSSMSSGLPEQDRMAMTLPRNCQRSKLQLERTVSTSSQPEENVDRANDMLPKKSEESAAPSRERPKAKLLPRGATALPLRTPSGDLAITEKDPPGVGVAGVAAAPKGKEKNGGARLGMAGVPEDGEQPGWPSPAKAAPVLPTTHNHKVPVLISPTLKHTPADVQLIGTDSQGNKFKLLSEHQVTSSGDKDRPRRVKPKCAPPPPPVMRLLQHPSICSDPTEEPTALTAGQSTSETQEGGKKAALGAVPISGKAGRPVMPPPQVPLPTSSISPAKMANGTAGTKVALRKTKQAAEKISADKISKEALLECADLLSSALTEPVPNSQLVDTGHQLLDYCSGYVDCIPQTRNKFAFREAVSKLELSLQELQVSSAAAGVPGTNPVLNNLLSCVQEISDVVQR

| Structure (SMILES) | remaining activity at 10 µM (EPHB1) [%] | remaining activity at 10 µM (EPHB6) [%] | remaining activity at 10 µM (MET(M1250T) [1]) [%] | Percent control (MET(M1250T) [2]) [%] | chemical stability in all conditions tested [3] | Percent control (ABL2) [%] | Percent control (SYK) [%] |
| --- | --- | --- | --- | --- | --- | --- | --- |
| C#Cc1cccc(Nc2ncnc3cc(OCCOC)c(OCCOC)cc23)c1 [Erlotinib] | 9.9 | 14.5 | 21.9 | – | – | – | – |
| Cc1ccc(NC(=O)c2ccc(CN3CCN(C)CC3)cc2)cc1Nc1nccc(-c2cccnc2)[n+]1[Pt-2]1([Cl])[NH2+]C2CCCCC2[NH2+]1 (centres unmarked) [1b, oxaliplatin-imatinib] | – | – | – | 89 | stable | – | – |
| Cc1ccc(NC(=O)c2ccc(CN3CCN(C)CC3)cc2)cc1Nc1nccc(-c2cccnc2)n1 [Imatinib, reference compound] | – | – | 100 | – | – | – | – |
| COc1cc2c(Nc3ccc(Br)cc3F)ncnc2cc1OCC1CCN(C)CC1 [Vandetanib, reference compound] | 2.8 | 0.8 | – | – | – | – | – |
| COc1cc2c(Nc3ccc(Br)cc3F)[n+]([Pt-2]3([Cl])[NH2+]C4CCCCC4[NH2+]3)cnc2cc1OCC1CCN(C)CC1 (centres unmarked) [3b, oxaliplatin-vandetanib] | – | – | – | – | – | 20 | 85 |
| C#Cc1cccc(Nc2c3cc(OCCOC)c(OCCOC)cc3nc[n+]2[Pt@SP2-2]([NH3+])([NH3+])[Cl])c1 [2a, cisplatin-erlotinib] | – | – | – | 95 | stable | 46 | 88 |

Source: publication PMC4858680, “A platinum-based hybrid drug design approach to circumvent acquired resistance to molecular targeted tyrosine kinase inhibitors” (Scientific Reports, 2016)
